System: H23 cells
Assay: CRISPR/Cas9 synthetic lethal screen with TNO155 alone
Type: cell-based, human

In the case of C[C@@H]1OCC2(CCN(c3cnc(Sc4ccnc(N)c4Cl)c(N)n3)CC2)[C@@H]1N [TNO155], the “neg|lfc” value (knockout gene AP2M1) is reported as −1.5896, the “neg|lfc” value (knockout gene ATP6V0C) is reported as −2.4937 and the “neg|lfc” value (knockout gene ATP6V1F) is reported as −1.3822. The “neg|lfc” value (knockout gene ATP6V1H) was −1.2922, the “neg|lfc” value (knockout gene BUB1) was −1.3761 and the “neg|lfc” value (knockout gene C7orf26) was −1.2403. The “neg|lfc” value (knockout gene C12orf45) was −0.8919, the “neg|lfc” value (knockout gene C18orf21) was −1.7774 and the “neg|lfc” value (knockout gene CAPZA1) was −0.8323. For the same compound, the “neg|lfc” value (knockout gene CARD10) was −0.8745, the “neg|lfc” value (knockout gene CD3EAP) was −0.9138 and the “neg|lfc” value (knockout gene CENPM) was −2.7542. The “neg|lfc” value (knockout gene CFDP1) was −1.4115, the “neg|lfc” value (knockout gene COQ6) was −0.9015 and the “neg|lfc” value (knockout gene COX6B1) was −1.1999. The “neg|lfc” value (knockout gene CS) was −0.9482, the “neg|lfc” value (knockout gene DCST2) was −1.3843 and the “neg|lfc” value (knockout gene DDX52) was −1.2486. The “neg|lfc” value (knockout gene DENR) was −1.046, the “neg|lfc” value (knockout gene DHPS) was −1.8131 and the “neg|lfc” value (knockout gene DPM3) was −0.9381. The “neg|lfc” value (knockout gene EGLN1) was −1.2972, the “neg|lfc” value (knockout gene ELP2) was −0.9643 and the “neg|lfc” value (knockout gene EXOSC2) was −2.2014. For the same compound, the “neg|lfc” value (knockout gene FASTKD5) was −1.4304, the “neg|lfc” value (knockout gene FBL) was −2.1994 and the “neg|lfc” value (knockout gene FXN) was −2.3715. For the same compound, the “neg|lfc” value (knockout gene G6PD) was −2.0605, the “neg|lfc” value (knockout gene GATA5) was −0.7392 and the “neg|lfc” value (knockout gene GMPS) was −1.5348. For the same compound, the “neg|lfc” value (knockout gene GNB2L1) was −1.4387, the “neg|lfc” value (knockout gene GTF2H3) was −0.8448 and the “neg|lfc” value (knockout gene GTF3C1) was −1.8687. The “neg|lfc” value (knockout gene HARS2) was −1.9989, the “neg|lfc” value (knockout gene HIRA) was −1.0969 and the “neg|lfc” value (knockout gene HSPA13) was −1.2857. The “neg|lfc” value (knockout gene IPO9) was −1.5514, the “neg|lfc” value (knockout gene KIAA1324) was −0.9092 and the “neg|lfc” value (knockout gene KREMEN2) was −1.0026. For the same compound, the “neg|lfc” value (knockout gene LARS) was −2.0903, the “neg|lfc” value (knockout gene LEMD2) was −1.7855 and the “neg|lfc” value (knockout gene LIAS) was −1.7787. The “neg|lfc” value (knockout gene LRPPRC) was −1.3022, the “neg|lfc” value (knockout gene MCAT) was −1.6999 and the “neg|lfc” value (knockout gene MMGT1) was −1.1768. The “neg|lfc” value (knockout gene MPHOSPH10) was −1.2081, the “neg|lfc” value (knockout gene MRPL2) was −1.5188 and the “neg|lfc” value (knockout gene MRPS11) was −2.1012. For the same compound, the “neg|lfc” value (knockout gene MRPS14) was −2.7074, the “neg|lfc” value (knockout gene MTERFD1) was −0.8478 and the “neg|lfc” value (knockout gene MTFMT) was −1.4999. For the same compound, the “neg|lfc” value (knockout gene MVD) was −2.2878, the “neg|lfc” value (knockout gene NDUFAF4) was −2.8677 and the “neg|lfc” value (knockout gene NDUFS2) was −1.6602. For the same compound, the “neg|lfc” value (knockout gene NGDN) was −1.6157, the “neg|lfc” value (knockout gene NHP2) was −2.4304 and the “neg|lfc” value (knockout gene NUP50) was −1.7194. For the same compound, the “neg|lfc” value (knockout gene OXA1L) was −1.0359, the “neg|lfc” value (knockout gene PAXIP1) was −1.2046 and the “neg|lfc” value (knockout gene PELO) was −1.8232. The “neg|lfc” value (knockout gene PFDN2) was −1.6271, the “neg|lfc” value (knockout gene PHB) was −0.6638 and the “neg|lfc” value (knockout gene PHF6) was −0.9513. The “neg|lfc” value (knockout gene PIGM) was −0.9761, the “neg|lfc” value (knockout gene PIK3C3) was −1.3101 and the “neg|lfc” value (knockout gene PKN2) was −1.323. The “neg|lfc” value (knockout gene PLEC) was −0.9261, the “neg|lfc” value (knockout gene POLR3C) was −2.1096 and the “neg|lfc” value (knockout gene PRMT1) was −2.4486. The “neg|lfc” value (knockout gene PTCD3) was −1.5106, the “neg|lfc” value (knockout gene RABGGTA) was −1.5175 and the “neg|lfc” value (knockout gene RBFA) was −1.2488. The “neg|lfc” value (knockout gene RBM15) was −0.9128, the “neg|lfc” value (knockout gene RMND1) was −2.1857 and the “neg|lfc” value (knockout gene RNGTT) was −1.4545. For the same compound, the “neg|lfc” value (knockout gene RNMTL1) was −1.8816, the “neg|lfc” value (knockout gene RPF2) was −1.6299 and the “neg|lfc” value (knockout gene RPS2) was −1.4859. For the same compound, the “neg|lfc” value (knockout gene RRP36) was −1.7306, the “neg|lfc” value (knockout gene RSBN1) was −1.1801 and the “neg|lfc” value (knockout gene SDHB) was −1.352. The “neg|lfc” value (knockout gene SDHC) was −1.0873, the “neg|lfc” value (knockout gene SLC30A9) was −0.8169 and the “neg|lfc” value (knockout gene SMNDC1) was −1.605. The “neg|lfc” value (knockout gene SNRPA) was −0.853, the “neg|lfc” value (knockout gene SORT1) was −0.7919 and the “neg|lfc” value (knockout gene SS18L2) was −1.8054. For the same compound, the “neg|lfc” value (knockout gene SYS1) was −1.4135, the “neg|lfc” value (knockout gene TAF2) was −1.6548 and the “neg|lfc” value (knockout gene TAMM41) was −1.389. The “neg|lfc” value (knockout gene TEX10) was −1.2531, the “neg|lfc” value (knockout gene TFRC) was −0.7641 and the “neg|lfc” value (knockout gene TRAPPC3) was −1.2908. For the same compound, the “neg|lfc” value (knockout gene TRAPPC11) was −1.3146, the “neg|lfc” value (knockout gene TRMT6) was −1.3112 and the “neg|lfc” value (knockout gene TSC2) was −1.2936. For the same compound, the “neg|lfc” value (knockout gene VMP1) was −2.2825, the “neg|lfc” value (knockout gene XRCC3) was −1.7596 and the “neg|lfc” value (knockout gene YARS) was −2.5691. For the same compound, the “neg|lfc” value (knockout gene YKT6) was −1.2993.
